Assay results as given in ChEMBL document CHEMBL4219072, “Enhancing the anti-biofilm activity of 5-aryl-2-aminoimidazoles through nature inspired dimerisation” (Bioorg Med Chem, 2018).

What was measured:
[1] = system: Escherichia coli; assay: Antibiofilm activity against Escherichia coli TG1 after 24 hrs by crystal violet staining based assay; format: functional, organism-based; conditions: TG1, 24 h
[2] = system: Staphylococcus aureus; assay: Antibiofilm activity against Staphylococcus aureus SH1000 after 48 hrs by crystal violet staining based assay; format: functional, organism-based; conditions: SH1000, 48 h
[3] = system: Salmonella typhimurium; assay: Antibiofilm activity against Salmonella typhimurium ATCC 14028 after 24 hrs by crystal violet staining based assay; format: functional, organism-based, Salmonella enterica subsp. enterica serovar Typhimurium; conditions: Salmonella enterica, ATCC 14028, 24 h
[4] = system: Escherichia coli; assay: Inhibition of planktonic growth of Escherichia coli TG1 after 24 hrs; format: organism-based; conditions: TG1, 24 h
[5] = system: Pseudomonas aeruginosa; assay: Antibiofilm activity against Pseudomonas aeruginosa PA14 after 24 hrs by crystal violet staining based assay; format: functional, organism-based; conditions: PA14, 24 h
[6] = system: Salmonella typhimurium; assay: Inhibition of planktonic growth of Salmonella typhimurium ATCC 14028 after 24 hrs; format: organism-based, Salmonella enterica subsp. enterica serovar Typhimurium; conditions: Salmonella enterica, ATCC 14028, 24 h
[7] = system: Staphylococcus aureus; assay: Inhibition of planktonic growth of Staphylococcus aureus SH1000 after 48 hrs; format: organism-based; conditions: SH1000, 48 h

Row | Structure (SMILES) | IC50 [1] | IC50 [2] | IC50 [3] | IC50 [4] | IC50 [5] | IC50 [6] | IC50 [7]
1 | Nc1ncc(-c2ccccc2)[nH]1 | 146 µM | > 800 µM | – | – | – | – | –
2 | Nc1ncc(-c2ccc(F)cc2)[nH]1 | 75.5 µM | > 800 µM | – | – | – | – | –
3 | Nc1ncc(-c2ccc(Cl)cc2)[nH]1 | 18 µM | 121 µM | – | – | – | – | –
4 | Nc1ncc(-c2ccc(Br)cc2)[nH]1 | 8.8 µM | 152 µM | – | – | – | – | –
5 | Nc1ncc(-c2ccc(Cl)cc2)n1CCCCCCCn1c(-c2ccc(Cl)cc2)cnc1N | 6.1 µM | 10.6 µM | 3.3 µM | > 400 µM | 4.9 µM | 200 µM | 16.2 µM
6 | Nc1ncc(-c2ccc(Br)cc2)n1CCCn1c(-c2ccc(Br)cc2)cnc1N | 6.3 µM | 15 µM | 2.7 µM | 9.93 µM | 2.5 µM | 11.5 µM | 22 µM
7 | c1ccc(-c2cnc(NCCCCCCCCNc3ncc(-c4ccccc4)[nH]3)[nH]2)cc1 | 19.3 µM | 300 µM | 11.2 µM | 48.7 µM | 21.3 µM | > 800 µM | 230 µM
8 | Nc1ncc(-c2ccc(Cl)cc2)n1CCCn1c(-c2ccc(Cl)cc2)cnc1N | 4.5 µM | 26.4 µM | 4.1 µM | 7.56 µM | 3.1 µM | 11 µM | 26.4 µM
9 | c1ccc(-c2cnc(NCCCCCCNc3ncc(-c4ccccc4)[nH]3)[nH]2)cc1 | 2 µM | 99.4 µM | 14.2 µM | 2.58 µM | 23.7 µM | 41.3 µM | 113 µM
10 | Nc1ncc(-c2ccc(F)cc2)n1CCCCCCn1c(-c2ccc(F)cc2)cnc1N | 1.8 µM | 48 µM | 3.2 µM | > 800 µM | 11.6 µM | 23.8 µM | 34.4 µM
11 | Nc1ncc(-c2ccc(Cl)cc2)n1CCCCCCn1c(-c2ccc(Cl)cc2)cnc1N | 4 µM | 8.6 µM | 4.8 µM | > 400 µM | 3.2 µM | 300 µM | 7.4 µM
12 | Nc1ncc(-c2ccc(F)cc2)n1CCCCCCCCn1c(-c2ccc(F)cc2)cnc1N | 7 µM | 22.4 µM | 1.5 µM | 7.13 µM | 12.2 µM | 100 µM | 11.7 µM
13 | Nc1ncc(-c2ccc(Br)cc2)n1CCCCn1c(-c2ccc(Br)cc2)cnc1N | 6.4 µM | 7.2 µM | 3.9 µM | 6.09 µM | 3.1 µM | 200 µM | 9.17 µM
14 | c1ccc(-c2cnc(NCCCCCCCNc3ncc(-c4ccccc4)[nH]3)[nH]2)cc1 | 11.8 µM | 400 µM | 12.6 µM | 12.9 µM | 4.6 µM | > 800 µM | 689 µM
15 | Nc1ncc(-c2ccc(Cl)cc2)n1CCCCn1c(-c2ccc(Cl)cc2)cnc1N | 12.3 µM | 180 µM | 5.3 µM | 16.6 µM | 3.1 µM | 64 µM | 130 µM
16 | Nc1ncc(-c2ccc(F)cc2)n1CCCCn1c(-c2ccc(F)cc2)cnc1N | 25.4 µM | 24.4 µM | 11.4 µM | 77.3 µM | 11.1 µM | 50 µM | 27 µM

Row | Structure (SMILES) | IC50 [1] | IC50 [2] | IC50 [3] | IC50 [4] | IC50 [5] | IC50 [6] | IC50 [7]
17 | Nc1ncc(-c2ccc(F)cc2)n1CCCCCn1c(-c2ccc(F)cc2)cnc1N | 7.5 µM | 60.7 µM | 4.8 µM | 3.74 µM | 12 µM | 85.4 µM | 59.7 µM
18 | Nc1ncc(-c2ccccc2)n1CCCCn1c(-c2ccccc2)cnc1N | 27.5 µM | 275 µM | 13.5 µM | 50.4 µM | 23.6 µM | 59.3 µM | 255 µM
19 | Nc1ncc(-c2ccc(Br)cc2)n1CCCCCCCn1c(-c2ccc(Br)cc2)cnc1N | 2.3 µM | 5.5 µM | 1.7 µM | > 400 µM | 1.1 µM | > 400 µM | 8.02 µM
20 | Nc1ncc(-c2ccc(F)cc2)n1CCCCCCCn1c(-c2ccc(F)cc2)cnc1N | 7.2 µM | 23.7 µM | 2.9 µM | > 100 µM | 7.1 µM | 50 µM | 34 µM
21 | Nc1ncc(-c2ccccc2)n1CCCCCCn1c(-c2ccccc2)cnc1N | 2.9 µM | 51.3 µM | 3 µM | > 800 µM | 4 µM | 100 µM | 53.8 µM
22 | Nc1ncc(-c2ccc(Br)cc2)n1CCCCCn1c(-c2ccc(Br)cc2)cnc1N | 6.3 µM | 7.4 µM | 4 µM | 6.7 µM | 6.1 µM | 35.9 µM | 8.76 µM
23 | Nc1ncc(-c2ccc(Cl)cc2)n1CCCCCn1c(-c2ccc(Cl)cc2)cnc1N | 12 µM | 13.5 µM | 5.1 µM | 13.4 µM | 6.6 µM | 19.1 µM | 24.3 µM
24 | Nc1ncc(-c2ccccc2)n1CCCCCCCCn1c(-c2ccccc2)cnc1N | 2.9 µM | 22.2 µM | 16.1 µM | 6.13 µM | 8.7 µM | > 400 µM | 15.3 µM
25 | Nc1ncc(-c2ccccc2)n1CCCn1c(-c2ccccc2)cnc1N | 26.6 µM | 0.4 µM | 15.3 µM | 62.4 µM | 25.2 µM | 147 µM | 572 µM
26 | Nc1ncc(-c2ccc(F)cc2)n1CCCn1c(-c2ccc(F)cc2)cnc1N | 7.5 µM | 171 µM | 7.4 µM | 10.7 µM | 11.6 µM | 103 µM | 124 µM
27 | Nc1ncc(-c2ccc(Cl)cc2)n1CCCCCCCCn1c(-c2ccc(Cl)cc2)cnc1N | 1.1 µM | 6.1 µM | 2 µM | 2.8 µM | 1.3 µM | 47.8 µM | 3.9 µM
28 | Nc1ncc(-c2ccccc2)n1CCCCCn1c(-c2ccccc2)cnc1N | 10.5 µM | 96.1 µM | 20.2 µM | > 800 µM | 33.1 µM | 89.8 µM | 85.7 µM
29 | Nc1ncc(-c2ccc(Br)cc2)n1CCCCCCCCn1c(-c2ccc(Br)cc2)cnc1N | 0.8 µM | 2.8 µM | 7.7 µM | 2.99 µM | 4.5 µM | > 400 µM | 2 µM
30 | Nc1ncc(-c2ccccc2)n1CCCCCCCn1c(-c2ccccc2)cnc1N | 8 µM | 11.7 µM | 3.7 µM | > 800 µM | 3.7 µM | > 400 µM | 32.7 µM
31 | Nc1ncc(-c2ccc(Br)cc2)n1CCCCCCn1c(-c2ccc(Br)cc2)cnc1N | 8.2 µM | 11.2 µM | 8.4 µM | > 400 µM | 5.8 µM | > 400 µM | 11.1 µM
